Drawing on ChEMBL document CHEMBL1128970, “Synthesis and characterization of the second cysteine-rich region of mouse skin PKCGh” (Bioorg Med Chem Lett, 1996), this text covers Ki for four compounds.

Experiment [1] has as its target T1, Protein kinase C eta type (Mus musculus, UniProt P23298). The experiment in a line: Inhibition of [3H]- PDBu binding to peptide D of mouse skin Protein kinase C eta (inactive).
For experiment [2], the target named is T2, Protein kinase C gamma type (Rattus norvegicus, UniProt P63319). The experiment in a line: Inhibition of [3H]- PDBu binding to peptide C, rat brain PKC gamma (inactive).
Experiment [3] concerns the target T1, Protein kinase C eta type. The experiment in a line: Inhibition of [3H]- PDBu binding to peptide D of mouse skin Protein kinase C eta.
The target in experiment [4] is T2, Protein kinase C gamma type. The experiment in a line: Inhibition of [3H]- PDBu binding to peptide C, rat brain PKC gamma.

As usually defined, the Ki is a measure of affinity in units of concentration, obtained from inhibition or displacement. A higher Ki goes with weaker binding.

T1 sequence (P23298 whole entry): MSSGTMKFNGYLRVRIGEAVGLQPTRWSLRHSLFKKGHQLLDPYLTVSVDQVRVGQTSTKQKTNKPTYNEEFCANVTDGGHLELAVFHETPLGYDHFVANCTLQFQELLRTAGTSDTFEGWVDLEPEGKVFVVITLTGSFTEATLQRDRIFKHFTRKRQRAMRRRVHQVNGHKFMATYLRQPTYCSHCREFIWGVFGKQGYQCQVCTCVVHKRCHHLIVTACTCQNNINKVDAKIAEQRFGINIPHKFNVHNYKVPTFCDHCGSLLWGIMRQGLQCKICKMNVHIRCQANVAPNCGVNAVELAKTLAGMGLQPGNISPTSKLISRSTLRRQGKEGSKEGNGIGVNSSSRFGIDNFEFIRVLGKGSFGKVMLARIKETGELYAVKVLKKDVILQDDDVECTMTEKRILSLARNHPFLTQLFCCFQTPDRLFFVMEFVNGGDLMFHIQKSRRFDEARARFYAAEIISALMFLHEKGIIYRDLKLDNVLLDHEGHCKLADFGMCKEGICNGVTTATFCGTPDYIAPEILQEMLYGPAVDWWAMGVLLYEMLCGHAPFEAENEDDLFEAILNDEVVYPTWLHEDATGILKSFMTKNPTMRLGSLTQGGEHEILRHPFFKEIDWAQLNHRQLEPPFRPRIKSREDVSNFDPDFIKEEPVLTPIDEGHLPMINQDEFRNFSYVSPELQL

Regarding `CCCCCCCCCC(=O)O[C@@H]1[C@@H](C)[C@@]2(O)[C@@H](C=C(CO)C[C@@]3(O)C(=O)C(C)=C[C@@H]23)[C@@H]2C(C)(C)[C@]12OC(=O)CCCCCCCCC`, the Ki entry in experiment [1] and in experiment [2] was “Not Active” in each case. As to `CCCC(=O)O[C@@H]1[C@@H](C)[C@@]2(O)[C@@H](C=C(CO)C[C@]3(O)C(=O)C(C)=C[C@@H]23)[C@@H]2C(C)(C)[C@]12OC(=O)CCC`, the Ki was found to be 0.6 nM in experiment [3] and 52.9 nM in experiment [4]. The corresponding values for `C=C[C@@]1(C)CC[C@](C)(C(C)C)c2cc3c4c(c[nH]c4c21)C[C@@H](CO)NC(=O)[C@H](C(C)C)N3C` are 0.1 nM and 2 nM. As for `CCCCCCCC(=O)OCC(CO)OC(=O)CCCCCCC` (configuration not stated) [MONOCTANOIN COMPONENT C], the Ki in experiment [3] turned out to be 14.5 nM.
